Laboratory results taken from publication PMC13017400, “ENPP1 inhibition as a therapeutic approach for later-onset hypophosphatasia” (Journal of Bone and Mineral Research, 2025).

Target: T1, ENPP1 (ectonucleotide pyrophosphatase/phosphodiesterase 1) (Mus musculus, UniProt P06802)
T1 sequence (P06802 1-906): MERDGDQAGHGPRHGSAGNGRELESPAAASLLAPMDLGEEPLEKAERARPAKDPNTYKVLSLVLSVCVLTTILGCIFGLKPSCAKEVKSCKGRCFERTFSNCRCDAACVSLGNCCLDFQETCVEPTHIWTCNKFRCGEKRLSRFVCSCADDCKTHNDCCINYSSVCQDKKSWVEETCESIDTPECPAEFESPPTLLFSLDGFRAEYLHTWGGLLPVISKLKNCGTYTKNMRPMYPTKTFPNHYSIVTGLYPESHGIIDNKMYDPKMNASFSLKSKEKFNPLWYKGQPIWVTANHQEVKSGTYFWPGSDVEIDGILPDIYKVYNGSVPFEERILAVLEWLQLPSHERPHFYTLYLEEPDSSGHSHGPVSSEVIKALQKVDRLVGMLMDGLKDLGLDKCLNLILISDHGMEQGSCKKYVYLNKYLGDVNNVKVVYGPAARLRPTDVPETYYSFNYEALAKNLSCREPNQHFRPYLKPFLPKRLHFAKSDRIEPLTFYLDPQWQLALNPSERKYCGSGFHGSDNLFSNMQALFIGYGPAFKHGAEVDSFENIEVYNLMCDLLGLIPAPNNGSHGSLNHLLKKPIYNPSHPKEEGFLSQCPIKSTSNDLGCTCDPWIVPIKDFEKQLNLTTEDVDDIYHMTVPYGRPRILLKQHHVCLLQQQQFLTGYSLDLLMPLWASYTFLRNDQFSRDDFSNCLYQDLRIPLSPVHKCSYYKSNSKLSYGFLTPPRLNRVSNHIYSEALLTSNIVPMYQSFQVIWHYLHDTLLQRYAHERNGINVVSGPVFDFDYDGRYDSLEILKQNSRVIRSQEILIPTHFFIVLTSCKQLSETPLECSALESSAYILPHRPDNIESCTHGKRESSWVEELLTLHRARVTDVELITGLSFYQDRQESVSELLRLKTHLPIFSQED
Experiment: Transcreener AMP/GMP TR-FRET enzymatic assay, […] mouse ENPP1 protein, […] ATP
Format: biochemical

REV102
IC50: 6.3 nM
